Assay results published in patent US20080113908A1, “Use of CRF receptor agonists for the treatment or Prophylaxis of diseases, for example Neurodegenerative diseases” (SmithKline Beecham plc, priority 2000, published 2008).
In brackets after ≈: the same amount, converted by molar mass. Where two headings read alike, the source gives them in different places.

Tests used:
GSK-3β = experiment: Western blot of serine-9-phosphorylated GSK-3β (FIG. 5); type: cell-based, rat; details: compound alone, 2 hours; CRF 10 nM, LY 294002 75 μM, FSK 30 μM
Source text: It was thought that CRF receptor agonists might interact with the PI 3-kinase signalling pathway and exert their neuroprotective effect by phosphorylating and inhibiting the protein GSK-3β,which is pro-apoptotic (M. Pap and G. M. Cooper, J. Biol. Chem., 273(32), 19929-19932, 1998; and M. Hetman et al. J. Neurosci., 1st Apr. 2000, 20(7), 2567-2574; discussed hereinabove). In order to confirm this, the level of GSK-3β phosphorylated at serine-9 (e.g. see D. A. E. Cross, Nature, 378, 785-789, 1995) in control cultures of cerebellar granule neurones was measured using Western blots, and compared to the level of phospho-GSK-3β in the presence of CRF as a model CRF receptor agonist and/or in the presence of the PI 3-kinase inhibitor LY 294002. In order to determine whether elevation of cAMP was involved in any effect, the level of phospho-GSK-3β in cultures in the presence of the known cAMP-elevating agent forskolin (FSK, obtainable e.g. from Calbiochem.) with or without LY 294002 present was also measured. The forskolin acts as a benchmark for cAMP-related effects.
The method used was as follows. […]
Phosphorylation of GSK-3β was detected using an antibody to serine-9-phosphorylated GSK-3β (anti-phospho-GSK-3β (Ser9)) available as catalogue no. […]

PI 3-kinase = details: cited from earlier work
[1] = system: cerebellar granule neurones; experiment: Assay 3: intracellular cyclic AMP enzyme immunoassay; type: cell-based, rat; details: agonist 0 to 30 nM, 15 min, 0.5 mM IBMX
Description: Assay 3: The production of cAMP by the CRF receptor agonist peptides CRF, urotensin 1, urocortin and sauvagine was measured as follows. This assay can be used analogously for any putative CRF receptor agonists including non-peptide agonists.
Intracellular cyclic AMP was measured with a cAMP 2-site enzyme immunoassay system (trade mark BIOTRAK, commercially available from Amersham Pharmacia Biotech, PO Box 164, Rainham, Essex RM13 8JZ, United Kingdom, Amersham catalogue number RPN225), based upon the use of a sensitive and highly specific capture antibody for cyclic AMP:
Cerebellar granule neurones were seeded in polylysine-coated […] plates, 3.5×10^5 cells per 48-well, in Basal medium Eagle's containing 10% fetal calf serum, 25 mM KCl, and antibiotics. At 8-9 days in vitro, granule neurone cultures were shifted to serum-free plating medium (0.4 ml) with 0.5 mM IBMX (to inhibit the breakdown of cyclic AMP) for 15 min (37° C.). Wells then received 0.1 ml of test peptide (5× final concentration). Generally 1 μM is the preferable final concentration for a putative CRF agonist under test, though different (e.g. lower) concentrations can be used as shown for the peptide agonists in FIG. 3. Incubation was continued for 15 min. Test medium was removed and the plate placed on dry ice, and stored at −140° C. Cyclic AMP analysis was performed the following day.
Cells were then lysed with the reagent provided with the BIOTRAK kit. Intracellular content of cyclic AMP in the lysates was assayed following the manufacturer's instructions. A standard curve was constructed using the cyclic AMP calibration provided, with the quantity of bound cyclic AMP being inversely proportional to the amount of second (chromogenic) antibody bound to the reaction wells. The colour product was read with an ELISA plate reader, and was a function of the amount of cyclic AMP in the unknown sample.

[2] = system: spontaneous hypertensive rats (SHR); experiment: Distal middle cerebral artery occlusion (MCAO), icv dosing (FIG. 7); type: in vivo; details: 10 μg/rat icv, 15 min and 2 hours post MCAO; 24 h permanent MCAO
Description: The animal protocols are as follows.
Focal ischemia experiments were performed on male spontaneously hypertensive rats (SHR; Taconic Farms, Germantown, N.Y., US) weight range 280-340 g. Body temperature was maintained at 37° C. during all surgical procedures and during recovery from anesthesia (i.e., until normal locomotor activity returned). Animals were anesthetized with pentobarbital (65 mg/kg, i.p.) and underwent permanent, right middle cerebral artery occlusion (MCAO) for 24 h as described previously (F. C. Barone et al., Neuroscience & Biobehavioral Reviews, 16 (1992) 219-33, and F. C. Barone et al., Stroke, 29 (1998) 1937-50). Body temperature was monitored throughout the surgical procedure by a rectal thermometer, and the animals maintained normothermic (37±0.5° C.) via a heating blanket controlled by the thermometer. A needle temperature probe was also inserted into the left temporalis muscle to give an indirect measurement of brain temperature. Actual core and temporalis temperature values were recorded at the time of MCA occlusion. […]
The rats were allowed to recover from surgery on a heating pad while containing to be under the influence of the pentobarbital anesthesia. Once animals were able to right themselves and begin spontaneous movement, they were placed in cages on the heating pads and monitored for any distress until fully recovered from anesthesia. […]

[3] = system: cerebellar granule neurones; type: cell-based, rat; details: 48 h, MTT, sham-treated = 100%
Description: Cerebellar granule neurones were used in the examples to test neuroprotection by CRF receptor agonists. Cerebellar granule neurones (CGNs) undergo apoptosis during the first few weeks of postnatal life, and in culture require mildly depolarising concentrations of KCl (25 mM) for their survival and maturation (S. R: D'Mello et al., Proc. Natl. Acad. Sci. USA 90, 10989-10993, 1993). The growth signal provided by KCl depends upon activation of the phosphatidylinositol 3-kinase (PI 3-kinase) pathway, and pharmacological inhibition of PI 3-kinase in differentiated granule neurones leads to apoptotic death in the CGNs (T. M. Miller et al., J. Biol. Chem., 272, 9847-9853, 1997). Thus, cultured CGNs represent a suitable model to study mechanisms of programmed cell death, and to identify putative neuroprotective signalling pathways.
Assay 1: Cerebellar granule neurones prepared from postnatal day 8 Sprague Dawley rat pups were used for experiments on death induced by inhibition of PI 3-kinase. General culture methods are described in S. D. Skaper et al. in Methods in Neurosciences, Vol. 2 (Conn P. M., ed), pp. 17-33. Academic Press, San Diego, 1990. At 8-9 days in vitro (DIV), granule neurone cultures were shifted to phenol red-free Dulbecco's modified Eagle's medium lacking serum, and containing 0.05% bovine serum albumin and 25 mM KCl. Death was induced by addition of the PI 3-kinase inhibitor LY 294002 (75 μM). CRF or CRF agonist peptides (urotensin 1, urocortin, sauvagine) were added at different concentrations (from 0.3nM to 300 nM or 1000 nM) together with LY 294002. Forty-eight hours later neuronal survival was quantified by a colorimetric reaction MTT. Absolute MTT values obtained were normalised for small differences in interexperiment plating densities by scaling to the mean of sham-treated sister cultures (defined as 100%).
Results are shown in Table 1 below and in graphical form in FIG. 1, which show the percentage mean neuronal survival (and standard deviation), when in the presence of the relevant CRF receptor agonists and LY 294002, as a function of agonist concentration. […] Urotensin 1, urocortin and sauvagine were also neuroprotective albeit with lower potency (<1 μM).

Row | Molecule | phospho-GSK-3β level compared to control CN (GSK-3β) | IC50 (PI 3-kinase) [nM] | IC50 PI 3-kinase activity (PI 3-kinase) [µg/mL] | cAMP synthesis induced by agonist (FIG. 3) [1] | infarct size [2] | numerical score for neurological deficits [2] | Mean survival % ([3]; agonist 0.3 nM with LY 294002 75 μM) [%] | Mean survival % ([3]; agonist 1 nM with LY 294002 75 μM) [%] | Mean survival % ([3]; agonist 3 nM with LY 294002 75 μM) [%] | Mean survival % ([3]; agonist 10 nM with LY 294002 75 μM) [%] | Mean survival % ([3]; agonist 30 nM with LY 294002 75 μM) [%] | Mean survival % ([3]; agonist 100 nM with LY 294002 75 μM) [%] | Mean survival % ([3]; agonist 300 nM with LY 294002 75 μM) [%] | Mean survival % ([3]; agonist 1000 nM with LY 294002 75 μM) [%]
1 | O=c1cc(N2CCOCC2)oc2c(-c3ccccc3)cccc12 [LY 294002, 2-(4-morpholinyl)-8-phenyl-4H-1-benzopyran-4-one] | a decrease compared to control | 1400 | 0.43 (≈ 1.4 µM) | – | – | – | – | – | – | – | – | – | – | –
2 | NDDPPISIDLTFHLLRNMIEMARIENEREQAGLNRKYLDEV [Urotensin 1, Urotensin 1 (teleost fish, Sigma cat. no. U-7253), CRF receptor agonist peptide] | – | – | – | cAMP production increased with agonist concentration | 70-80 mm^3 | 9 | 42 | 52.89 | 68 | 74.44 | 71.67 | 71.17 | 73.83 | 79.17
